Laboratory results taken from article PMC9851200, “Multiparameter phenotypic screening for endogenous TFEB and TFE3 translocation identifies novel chemical series modulating lysosome function” (Autophagy, 2022).

How the values were obtained:
Type in all cases: binding
[1] = molecular target: T1, kinases (KINOMEscan panel) (Homo sapiens, UniProt O15197); settings: kinase EPHB6; NEW KINOMEscan
T1 sequence (O15197 32-1021): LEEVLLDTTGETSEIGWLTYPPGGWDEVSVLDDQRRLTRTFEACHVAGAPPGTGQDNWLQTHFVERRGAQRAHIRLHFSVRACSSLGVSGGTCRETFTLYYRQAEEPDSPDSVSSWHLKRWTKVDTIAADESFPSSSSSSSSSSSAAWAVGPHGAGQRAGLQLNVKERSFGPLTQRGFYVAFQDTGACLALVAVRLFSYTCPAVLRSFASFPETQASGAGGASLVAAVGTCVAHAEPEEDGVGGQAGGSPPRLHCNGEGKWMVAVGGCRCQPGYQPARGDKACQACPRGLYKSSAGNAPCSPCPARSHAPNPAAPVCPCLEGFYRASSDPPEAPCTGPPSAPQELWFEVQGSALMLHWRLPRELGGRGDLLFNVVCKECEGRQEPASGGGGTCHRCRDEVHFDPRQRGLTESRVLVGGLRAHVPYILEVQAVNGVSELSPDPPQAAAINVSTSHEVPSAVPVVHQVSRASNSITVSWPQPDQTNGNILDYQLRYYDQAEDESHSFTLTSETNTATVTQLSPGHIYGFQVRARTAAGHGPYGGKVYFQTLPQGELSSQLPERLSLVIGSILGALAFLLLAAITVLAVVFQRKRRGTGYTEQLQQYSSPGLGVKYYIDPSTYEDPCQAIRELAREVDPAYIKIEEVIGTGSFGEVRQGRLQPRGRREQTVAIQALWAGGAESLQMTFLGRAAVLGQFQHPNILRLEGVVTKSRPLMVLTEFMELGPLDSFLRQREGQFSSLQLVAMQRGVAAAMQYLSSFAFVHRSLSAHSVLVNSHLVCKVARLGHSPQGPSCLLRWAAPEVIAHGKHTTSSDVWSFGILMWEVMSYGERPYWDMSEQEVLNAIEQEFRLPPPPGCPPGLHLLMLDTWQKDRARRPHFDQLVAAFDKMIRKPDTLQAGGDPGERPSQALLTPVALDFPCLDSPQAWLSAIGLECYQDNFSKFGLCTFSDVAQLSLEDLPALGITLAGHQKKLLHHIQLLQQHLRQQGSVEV

[2] = molecular target: kinases (KINOMEscan panel) (Homo sapiens, UniProt P15056, V600E); settings: kinase BRAF(V600E); NEW KINOMEscan
Sequence of kinases (KINOMEscan panel) (Homo sapiens, UniProt P15056, V600E) (P15056 whole entry V600E): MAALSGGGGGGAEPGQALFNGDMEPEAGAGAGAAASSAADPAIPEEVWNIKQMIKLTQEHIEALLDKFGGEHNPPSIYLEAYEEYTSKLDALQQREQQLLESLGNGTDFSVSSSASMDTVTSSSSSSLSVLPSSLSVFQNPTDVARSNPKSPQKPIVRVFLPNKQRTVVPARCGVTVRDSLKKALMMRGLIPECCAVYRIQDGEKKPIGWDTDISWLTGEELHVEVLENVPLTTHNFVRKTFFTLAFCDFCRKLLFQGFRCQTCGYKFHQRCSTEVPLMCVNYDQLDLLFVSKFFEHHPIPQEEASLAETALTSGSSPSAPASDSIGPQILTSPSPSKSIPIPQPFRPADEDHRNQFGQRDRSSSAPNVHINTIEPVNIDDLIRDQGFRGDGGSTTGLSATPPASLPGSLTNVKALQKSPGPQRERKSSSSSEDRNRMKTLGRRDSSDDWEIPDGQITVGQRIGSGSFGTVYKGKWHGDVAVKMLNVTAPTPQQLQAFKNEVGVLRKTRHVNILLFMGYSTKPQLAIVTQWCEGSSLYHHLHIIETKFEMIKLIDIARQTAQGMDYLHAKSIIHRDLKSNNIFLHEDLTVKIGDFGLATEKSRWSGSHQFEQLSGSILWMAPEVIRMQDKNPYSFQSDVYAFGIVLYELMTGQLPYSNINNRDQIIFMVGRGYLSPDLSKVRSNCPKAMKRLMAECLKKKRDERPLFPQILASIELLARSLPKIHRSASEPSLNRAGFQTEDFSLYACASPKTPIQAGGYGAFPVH

[3] = molecular target: kinases (KINOMEscan panel) (Homo sapiens, UniProt P27037); settings: ACVR2A; NEW KINOMEscan
Sequence of kinases (KINOMEscan panel) (Homo sapiens, UniProt P27037) (P27037 20-513): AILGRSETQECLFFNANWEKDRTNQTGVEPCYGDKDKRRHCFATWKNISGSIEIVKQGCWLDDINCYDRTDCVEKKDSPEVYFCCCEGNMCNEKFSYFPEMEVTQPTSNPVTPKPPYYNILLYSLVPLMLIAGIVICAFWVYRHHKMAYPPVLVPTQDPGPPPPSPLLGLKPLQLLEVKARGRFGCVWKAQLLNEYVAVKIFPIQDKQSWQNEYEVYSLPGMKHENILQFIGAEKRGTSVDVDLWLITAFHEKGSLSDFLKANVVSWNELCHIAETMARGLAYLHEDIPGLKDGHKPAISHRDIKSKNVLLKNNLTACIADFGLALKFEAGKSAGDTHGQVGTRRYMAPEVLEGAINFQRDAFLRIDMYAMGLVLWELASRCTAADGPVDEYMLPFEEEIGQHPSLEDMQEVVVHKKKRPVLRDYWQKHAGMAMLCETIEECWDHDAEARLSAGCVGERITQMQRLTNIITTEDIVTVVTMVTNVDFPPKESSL

[4] = molecular target: T2, kinases (KINOMEscan panel) (Homo sapiens, UniProt Q09013); settings: kinase DMPK; NEW KINOMEscan
T2 sequence (Q09013 1-629): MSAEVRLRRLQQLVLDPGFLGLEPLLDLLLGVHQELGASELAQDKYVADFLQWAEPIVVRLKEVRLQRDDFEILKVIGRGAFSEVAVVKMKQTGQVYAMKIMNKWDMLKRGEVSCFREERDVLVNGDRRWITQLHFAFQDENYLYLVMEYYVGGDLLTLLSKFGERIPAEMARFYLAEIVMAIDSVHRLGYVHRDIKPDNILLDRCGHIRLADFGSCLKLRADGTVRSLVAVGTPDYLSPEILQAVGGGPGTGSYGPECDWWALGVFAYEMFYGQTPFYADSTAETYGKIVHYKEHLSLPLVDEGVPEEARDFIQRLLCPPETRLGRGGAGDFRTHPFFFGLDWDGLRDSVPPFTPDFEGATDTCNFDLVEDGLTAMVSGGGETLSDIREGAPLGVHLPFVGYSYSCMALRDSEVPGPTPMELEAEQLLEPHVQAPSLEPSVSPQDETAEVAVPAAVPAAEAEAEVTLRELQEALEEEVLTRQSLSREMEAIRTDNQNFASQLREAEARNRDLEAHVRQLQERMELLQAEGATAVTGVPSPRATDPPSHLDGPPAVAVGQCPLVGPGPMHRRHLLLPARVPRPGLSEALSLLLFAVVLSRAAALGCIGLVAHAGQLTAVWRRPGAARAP

[5] = molecular target: T3, kinases (KINOMEscan panel) (Homo sapiens, UniProt Q15835); settings: NEW KINOMEscan
T3 sequence (Q15835 1-563): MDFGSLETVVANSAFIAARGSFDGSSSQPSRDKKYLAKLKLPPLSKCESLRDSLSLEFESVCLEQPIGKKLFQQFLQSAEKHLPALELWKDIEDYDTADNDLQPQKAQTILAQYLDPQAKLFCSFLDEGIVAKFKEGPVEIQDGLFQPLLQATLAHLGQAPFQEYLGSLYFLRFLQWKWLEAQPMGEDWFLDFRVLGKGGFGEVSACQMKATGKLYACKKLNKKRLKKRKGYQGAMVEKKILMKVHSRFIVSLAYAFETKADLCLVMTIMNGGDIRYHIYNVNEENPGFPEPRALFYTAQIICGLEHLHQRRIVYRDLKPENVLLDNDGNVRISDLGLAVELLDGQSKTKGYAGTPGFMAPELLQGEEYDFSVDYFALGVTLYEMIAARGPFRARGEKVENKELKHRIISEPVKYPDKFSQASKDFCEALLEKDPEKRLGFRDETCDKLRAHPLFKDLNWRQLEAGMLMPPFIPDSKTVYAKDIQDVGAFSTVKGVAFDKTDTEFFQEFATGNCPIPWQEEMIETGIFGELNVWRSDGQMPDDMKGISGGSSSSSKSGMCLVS

[6] = molecular target: kinases (KINOMEscan panel) (Homo sapiens, UniProt Q9H0K1); settings: kinase SIK2; NEW KINOMEscan
Sequence of kinases (KINOMEscan panel) (Homo sapiens, UniProt Q9H0K1) (Q9H0K1 whole entry): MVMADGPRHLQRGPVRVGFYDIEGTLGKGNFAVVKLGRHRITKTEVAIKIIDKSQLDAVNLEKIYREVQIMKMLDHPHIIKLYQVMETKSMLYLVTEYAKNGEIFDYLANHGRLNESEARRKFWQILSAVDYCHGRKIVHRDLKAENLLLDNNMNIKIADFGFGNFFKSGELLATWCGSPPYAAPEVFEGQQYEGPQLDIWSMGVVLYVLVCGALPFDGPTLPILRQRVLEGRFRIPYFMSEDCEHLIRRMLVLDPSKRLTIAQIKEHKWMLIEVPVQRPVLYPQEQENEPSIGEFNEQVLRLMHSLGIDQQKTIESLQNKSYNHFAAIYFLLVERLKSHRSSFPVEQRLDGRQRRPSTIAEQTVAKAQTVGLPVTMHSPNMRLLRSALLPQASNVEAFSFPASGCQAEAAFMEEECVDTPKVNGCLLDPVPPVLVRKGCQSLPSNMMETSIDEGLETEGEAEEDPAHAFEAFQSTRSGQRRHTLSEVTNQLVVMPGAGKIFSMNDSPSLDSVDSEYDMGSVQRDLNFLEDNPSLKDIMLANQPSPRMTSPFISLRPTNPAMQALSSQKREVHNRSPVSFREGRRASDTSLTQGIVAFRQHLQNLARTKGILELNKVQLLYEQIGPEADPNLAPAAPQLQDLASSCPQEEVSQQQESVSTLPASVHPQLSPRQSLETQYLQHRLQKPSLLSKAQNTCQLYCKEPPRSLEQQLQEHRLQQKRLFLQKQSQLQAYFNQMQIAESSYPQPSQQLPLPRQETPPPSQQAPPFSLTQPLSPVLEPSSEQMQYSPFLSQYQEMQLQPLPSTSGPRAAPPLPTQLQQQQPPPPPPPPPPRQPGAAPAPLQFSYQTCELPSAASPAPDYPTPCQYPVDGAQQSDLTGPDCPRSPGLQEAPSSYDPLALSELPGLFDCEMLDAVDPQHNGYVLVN

Compound	KINOMEscan EPHB6 [1]	KINOMEscan BRAF(V600E) [2]	KINOMEscan ACVR2A [3]	KINOMEscan DMPK [4]	KINOMEscan GRK1 [5]	KINOMEscan SIK2 [6]
Cc1cccc(-c2nc(Nc3ccc4nn(C)cc4c3)c3ccccc3n2)n1 [NK167]	0	0	0	0	37	0
Cc1cccc(-c2nc(N(C)c3ccc4ncsc4c3)c3ccccc3n2)n1 [NK-161]	0	0	0	0	25	0
